Experimental data reported in patent US9108983B2, “Pyrrole compounds, a process for their preparation and pharmaceutical compositions containing them” (LES LABORATOIRES SERVIER, priority 2013, dated 2015).
Counter-ions that a name gives are not always drawn. Like-named read-outs stand apart in the source and are kept apart here.

Tests used:
Bcl-2 protein = Bcl-2 protein (histag-Bcl-2, UniProtKB P10415) (Homo sapiens (Human), UniProt P10415); test: Inhibition of Bcl-2 by the fluorescence polarisation technique; format: binding; conditions: incubation for 2 hours, read-out: IC50 (nM) Bcl-2 FP
Summary of the method: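 In pH 7.4 buffer (Hepes 10 mM, NaCl 150 mM, Tween20 0.05%), test compounds at increasing concentrations competed with a fluorescein peptide (1.00×10^−8 M final) for histag-Bcl-2 (2.50×10^−8 M final). Readout was fluorescence polarisation after a 2 h incubation.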

[1] = tested on: RS4;11 leukaemia tumour line; test: In vitro cytotoxicity (Microculture Tetrazolium Assay); format: cell-based; conditions: RS4;11 cells, exposed for 48 hours, cell viability, read-out: IC50 (nM) MTT RS4;11
Experimental: The cytotoxicity studies were carried out on the RS4;11 leukaemia tumour line.
The cells are distributed onto microplates and exposed to the test compounds for 48 hours.
The cell viability is then quantified by a colorimetric assay, the Microculture Tetrazolium Assay (Cancer Res., 1987, 47, 939-942).

[2] = tested on: cleaved (activated) form of caspase 3 in RS4;11 leukaemia cell xenograft tumours; test: Quantification of the cleaved form of caspase 3 in vivo (MSD ELISA); set-up: species or system mice (SCID strain); conditions: Mus musculus, cleaved caspase 3 MSD test, oral route, tumour removed after 2 hours, read-out: Activation factor ± SEM (versus control)
Experimental: The ability of the compounds of the invention to activate caspase 3 is evaluated in a xenograft model of RS4;11 leukaemia cells.
1×10^7 RS4;11 cells are grafted sub-cutaneously into immunosuppressed mice (SCID strain). 25 to 30 days after the graft, the animals are treated orally with the various compounds. After treatment, the tumour masses are recovered and lysed, and the cleaved (activated) form of caspase 3 is quantified in the tumour lysates.
The quantification is carried out using the “Meso Scale Discovery (MSD) ELISA platform” test, which specifically assays the cleaved form of caspase 3. It is expressed in the form of an activation factor corresponding to the ratio between the quantity of cleaved caspase 3 in the treated mice divided by the quantity of cleaved caspase 3 in the control mice.

Bcl-2 protein, sequence (P10415 whole entry): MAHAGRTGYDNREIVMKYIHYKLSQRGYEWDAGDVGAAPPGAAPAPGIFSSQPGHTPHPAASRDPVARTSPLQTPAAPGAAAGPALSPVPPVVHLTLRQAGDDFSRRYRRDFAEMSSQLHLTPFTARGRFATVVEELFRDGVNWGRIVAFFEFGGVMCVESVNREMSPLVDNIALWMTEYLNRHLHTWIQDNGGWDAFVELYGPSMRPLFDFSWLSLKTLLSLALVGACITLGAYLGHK

SMILES	IC50 (Bcl-2 protein) [nM]	IC50 ([1]; Homo sapiens, RS4-11, 48 h) [nM]	fold induction at 25 mg/kg [2]	IC50 [1] [nM]
Cc1c(C(=O)N(c2ccc(O)cc2)c2cnc3c(c2)CCN3C)cc(-c2cc(Cl)ccc2C(=O)N2Cc3ccccc3C[C@H]2CN2CCOCC2)n1C [Example 388, 5-(5-Chloro-2-{[(3S)-3-(morpholin-4-ylmethyl)-3,4-dihydroisoquinolin-2(1H)-yl]carbonyl}phenyl)-N-(4-hydroxyphenyl)-1,2-dimethyl-N-(1-methyl-2,3-dihydro-1H-pyrrolo[2,3-b]pyridin-5-yl)-1H-pyrrole-3-carboxamide dihydrochloride]	3.6	16.5	85.7 ± 3.7	–
Cc1c(C(=O)N(c2ccc(O)cc2)c2cnn(C)c2)cc(-c2cc(Cl)ccc2C(=O)N2Cc3ccccc3C[C@H]2CN2CCOCC2)n1C [Example 25, 5-(5-Chloro-2-{[(3S)-3-(morpholin-4-ylmethyl)-3,4-dihydroisoquinolin-2(1H)-yl]carbonyl}phenyl)-N-(4-hydroxyphenyl)-1,2-dimethyl-N-(1-methyl-1H-pyrazol-4-yl)-1H-pyrrole-3-carboxamide hydrochloride]	4	33.3	45.7 ± 2	–
Cc1c(C(=O)N(c2ccncc2)c2ccc(O)cc2)cc(-c2cc3c(cc2C(=O)N2Cc4ccccc4C[C@H]2CN2CCN(C)CC2)OCO3)n1C [Example 70, N-(4-Hydroxyphenyl)-1,2-dimethy-5-(6-{[(3S)-3-[(4-methylpiperazin-1-yl)methyl]-3,4-dihydroisoquinolin-2(1H)-yl]carbonyl}4,3-benodioxol-5-yl)-N-(pyridin-4-yl)-1H-pyrrole-3-carboxamide hydrochloride]	8.5	–	–	63.5

Now from value to molecule, other results behind:

IC50 (Bcl-2 protein) [nM]	SMILES	IC50 ([1]; Homo sapiens, RS4-11, 48 h) [nM]	fold induction at 25 mg/kg [2]	IC50 [1] [nM]
5.9	Cc1c(C(=O)N(c2ccc(O)cc2)c2cnn(C)c2)cc(-c2cc3c(cc2C(=O)N2Cc4ccccc4C[C@H]2CN2CCOCC2)OCO3)n1C [Example 47, N-(4-Hydroxyphenyl)-1,2-dimethyl-N-(1-methyl-1H-pyrazol-4-yl)-5-(6-{[(3S)-3-(morpholin-4-ylmethyl)-3,4-dihydroisoquinolin-2(1H)-yl]carbonyl}-1,3-benzodioxol-5-yl)-1H-pyrrole-3-carboxamide hydrochloride]	44.5	12.3 ± 2.4	–
5.1	Cc1c(C(=O)N(c2ccc(O)cc2)c2cc(C#N)n(C)c2)cc(-c2cc(F)ccc2C(=O)N2Cc3ccccc3C[C@H]2CN2CCOCC2)n1C [Example 230, N-(5-Cyano-1-methyl-1H-pyrrol-3-yl)-5-(5-fluoro-2-{[(3S)-3-(morpholin-4-ylmethyl)-3,4-dihydroisoquinolin-2(1H)-yl]carbonyl}phenyl)-N-(4-hydroxyphenyl)-1,2-dimethyl-1H-pyrrole-3-carboxamide hydrochloride]	18.3	42.2 ± 9.3	–
6.1	Cc1c(C(=O)N(c2ccc(O)cc2)c2cnc3c(ccn3C)c2)cc(-c2cc(Cl)ccc2C(=O)N2Cc3ccccc3C[C@H]2CN2CCOCC2)n1C [Example 71, 5-(5-Chloro-2-{[(3S)-3-(morpholin-4-ylmethyl)-3,4-dihydroisoquinolin-2(1H)-yl]carbonyl}phenyl)-N-(4-hydroxyphenyl)-1,2-dimethyl-N-(1-methyl-1H-pyrrolo[2,3-b]pyridin-5-yl)-1H-pyrrole-3-carboxamide hydrochloride]	12.9	46.8 ± 16.1	–
